Results: publication PMC2267855, “Site-directed mutagenesis of Arginine282 suggests how protons and peptides are co-transported by rabbit PepT1” (The International Journal of Biochemistry & Cell Biology, 2008)
Residue numbers refer to the chain shown, from its start. Where a SMILES comes first, the peptide text is derived from it.

Key:
R282A-PepT1 = molecular target: T1, R282A-PepT1 (Oryctolagus cuniculus, UniProt P36836, R282A); experiment: Apparent charge:peptide stoichiometry (two-electrode voltage clamp current / radiolabelled uptake), R282A-PepT1; format: cell-based, rabbit; details: R282A-PepT1, pHout 5.5, resting membrane potential
T1 construct: expressed in transfected cells; host or cells: Xenopus laevis oocytes injected with cRNA
T1 sequence (P36836 1-707 R282A): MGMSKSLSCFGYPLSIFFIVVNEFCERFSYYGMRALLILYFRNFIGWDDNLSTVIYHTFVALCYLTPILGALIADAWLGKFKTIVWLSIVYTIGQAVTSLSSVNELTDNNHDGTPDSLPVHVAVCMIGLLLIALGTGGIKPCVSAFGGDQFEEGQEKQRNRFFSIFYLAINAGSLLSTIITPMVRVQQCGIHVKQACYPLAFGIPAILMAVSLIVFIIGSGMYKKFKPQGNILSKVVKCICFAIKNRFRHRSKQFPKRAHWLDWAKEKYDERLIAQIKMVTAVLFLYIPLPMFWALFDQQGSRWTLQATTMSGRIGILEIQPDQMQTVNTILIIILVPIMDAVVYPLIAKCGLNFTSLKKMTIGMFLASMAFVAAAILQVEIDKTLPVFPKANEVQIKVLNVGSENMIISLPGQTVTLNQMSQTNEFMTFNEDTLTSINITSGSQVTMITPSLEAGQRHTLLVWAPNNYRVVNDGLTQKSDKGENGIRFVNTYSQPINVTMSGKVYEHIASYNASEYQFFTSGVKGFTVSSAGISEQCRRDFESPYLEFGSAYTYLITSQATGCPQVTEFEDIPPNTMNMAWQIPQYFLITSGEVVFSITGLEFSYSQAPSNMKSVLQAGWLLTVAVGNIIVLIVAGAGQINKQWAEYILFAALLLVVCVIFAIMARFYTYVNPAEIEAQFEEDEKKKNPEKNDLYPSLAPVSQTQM
Procedure: Measurements of membrane potential were made by impaling oocytes with a single glass microelectrode (Intra 767 amplifier, WPI, Stevenage, Hertfordshire, UK) perfused in uptake medium (as above) with or without 0.4 μM D-Phe-L-Gln (synthesised in house), 0.6 mM Gly-L-Gln (Sigma, Poole, UK) or 10 mM 4-aminobenzoic acid (4-AMBA, Sigma). Two-electrode voltage clamp (TEVC) was performed by placing oocytes in a 0.1 ml recording chamber and perfusing with uptake solution (pH 5.5 or 7.4) at a rate of 15 ml/min. Oocytes were impaled by two agarose-cushioned microelectrodes filled with 3 M KCl (0.5–2.0 MΩ) and voltage-clamped at −60 mV using a Geneclamp 500B amplifier and PCLAMP 8.1 software (Axon Instruments, CA, USA). The holding potential was stepped from −60 mV over the range of −150 to +50 mV in 10 mV steps, each pulse lasting 100 ms, and returning to −60 mV in between test voltage pulses. Typically traces were filtered at 1 kHz during recording and digitized at 0.5–5 kHz using the DigiData 1200 interface (Axon Instruments, CA, USA). All experiments were carried out at room temperature.
In order to calculate the apparent charge:substrate stoichiometry, the peptide induced current that was measured by two-electrode voltage clamp at the oocyte resting membrane potential was divided by the radiolabelled dipeptide uptake in oocytes from the same preparation. […]

R282K-PepT1 = molecular target: T2, R282K-PepT1 (Oryctolagus cuniculus, UniProt P36836, R282K); experiment: Inhibition of [3H]-D-Phe-L-Gln uptake into Xenopus oocytes expressing R282K-PepT1 (competition, Ki); format: cell-based, rabbit; details: pHout 5.5, 0.4 μM [3H]-D-Phe-L-Gln
T2 construct: expressed in transfected cells; host or cells: Xenopus laevis oocytes injected with cRNA
T2 sequence (P36836 1-707 R282K): T1 sequence (P36836 1-707 R282A) with A282K
Procedure: Zero-trans uptake of [^3H]-D-Phe-L-Gln (17.4 Ci/mmole, custom synthesised, Cambridge Research Biochemicals, Stockton-on-Tees, UK) was performed as previously described ([Meredith, 2004]). Briefly, 5 oocytes were incubated in 100 μl of uptake medium (95 mM NaCl, 2 mM KCl, 1 mM CaCl2, 0.42 mM MgCl2, 10 mM Tris/Hepes pH 7.4 or Tris/Mes pH 5.5) with tracer (0.4 μM) [^3H]-D-Phe-L-Gln. After incubation, the oocytes were washed sequentially five times in 1 ml of ice-cold 120 mM NaCl solution, lysed individually with 100 μl 2% (w/v) SDS and liquid scintillation counted. As a control non-injected oocytes were also incubated in uptake medium with [^3H]-D-Phe-L-Gln as above.
The affinity of wild-type and mutant PepT1 were assessed by competition studies with 0.4 μM [^3H]-D-Phe-L-Gln and Gly-L-Gln present in the uptake medium in concentrations from 0 to 2 mM using the protocol above, and the Ki calculated using the method of [Deves and Boyd (1989)].

| apparent stoichiometry (charge:peptide), normalised to wild-type 1:1 (R282A-PepT1) | Ki (R282K-PepT1) [µM] | Compound |
| --- | --- | --- |
| 5 |  | NC(=O)CC[C@H](NC(=O)[C@H](N)Cc1ccccc1)C(=O)O [D-Phe-L-Gln] |
|  | 480 ± 260 | NCC(=O)N[C@@H](CCC(N)=O)C(=O)O [Gly-L-Gln] (H-Gly-Gln-OH) |
